Experimental data from paper PMC12186262 (ACS Chemical Biology, 2025).
Read-outs that look alike come from different tables or passages of the source.

What was measured:
[1] = target: wild-type (WT) His-tagged SARS-CoV-2 SgP RBD (Severe acute respiratory syndrome coronavirus 2, UniProt P0DTC2); assay type: binding; conditions: for Mean fluorescence intensity (MFI): glycans printed at 100 µM, MFI scaled to positive control = 100, WT RBD 20 µg/mL
WT RBD of SARS-CoV-2 SgP [2] = target: T1, WT RBD of SARS-CoV-2 SgP (Severe acute respiratory syndrome coronavirus 2, UniProt P0DTC2); assay type: binding; conditions: read-out: KD (microarray, sigmoidal fit)
WT RBD of SARS-CoV-2 SgP [3] = target: T1, WT RBD of SARS-CoV-2 SgP; conditions: read-out: KD (solution fluorescence titration); pH 7.4
[4] = microarray, WT RBD, library A1-A19

SMILES | Mean fluorescence intensity (MFI) [1] | Kd (WT RBD of SARS-CoV-2 SgP [2]) [nM] | also measured
NCCCO[C@@H]1O[C@@H](C(=O)O)[C@@H](O[C@H]2O[C@H](CO)[C@@H](O[C@@H]3O[C@@H](C(=O)O)[C@@H](O[C@H]4O[C@H](CO)[C@@H](O)[C@H](OS(=O)(=O)O)[C@H]4N)[C@H](O)[C@H]3O)[C@H](OS(=O)(=O)O)[C@H]2N)[C@H](O)[C@H]1O [A9] | – | – | Recognition by WT RBD better than the next best molecule (A10) [1, 4]: > 250%
NCCCO[C@@H]1O[C@@H](C(=O)O)[C@@H](O[C@H]2O[C@H](CO)[C@@H](O[C@@H]3O[C@@H](C(=O)O)[C@@H](O[C@H]4O[C@H](CO)[C@@H](O)[C@H](OS(=O)(=O)O)[C@H]4N)[C@H](O)[C@H]3OS(=O)(=O)O)[C@H](OS(=O)(=O)O)[C@H]2N)[C@H](O)[C@H]1OS(=O)(=O)O [A13] | lower MFI in comparison to A9 | – | –
NOCCOCCO[C@@H]1O[C@@H](C(=O)O)[C@@H](OS(=O)(=O)O)[C@H](O)[C@H]1OS(=O)(=O)O [A16] | – | – | Binding signal relative to closest neighbors [1, 4]: ~3 fold
CC(=O)N[C@H]1[C@@H](O[C@H]2[C@H](F)[C@@H](OS(=O)(=O)O)[C@H](OCCCN)O[C@@H]2C(=O)O)O[C@H](COS(=O)(=O)O)[C@@H](O)[C@@H]1OS(=O)(=O)O [B20] | > 30 | – | –
NCCCO[C@@H]1O[C@H](C(=O)O)[C@@H](O[C@H]2O[C@H](COS(=O)(=O)O)[C@@H](O)[C@H](OS(=O)(=O)O)[C@H]2NS(=O)(=O)O)[C@H](F)[C@H]1O [B22] | > 30 | – | –
NCCCO[C@@H]1O[C@H](C(=O)O)[C@@H](O[C@H]2O[C@H](COS(=O)(=O)O)[C@@H](O)[C@H](OS(=O)(=O)O)[C@H]2NS(=O)(=O)O)[C@H](F)[C@H]1OS(=O)(=O)O [B23] | > 30 | – | –
NOCCOCCO[C@@H]1O[C@@H](COS(=O)(=O)O)[C@@H](OS(=O)(=O)O)[C@H](O)[C@H]1OS(=O)(=O)O [B30] | – | – | MFI relative to nonsulfated monosaccharide B24 and 3-O-sulfated B28 ([1]; microarray, WT RBD): 4 fold
NOCCOCCO[C@@H]1O[C@@H](COS(=O)(=O)O)[C@@H](O[C@@H]2O[C@@H](COS(=O)(=O)O)[C@@H](OS(=O)(=O)O)[C@H](O)[C@H]2OS(=O)(=O)O)[C@H](O)[C@H]1OS(=O)(=O)O [B32] | – | 243 ± 41 | –
NOCCOCCO[C@@H]1O[C@@H](COS(=O)(=O)O)[C@@H](O[C@@H]2O[C@@H](COS(=O)(=O)O)[C@@H](O[C@@H]3O[C@@H](COS(=O)(=O)O)[C@@H](OS(=O)(=O)O)[C@H](O)[C@H]3OS(=O)(=O)O)[C@H](O)[C@H]2OS(=O)(=O)O)[C@H](O)[C@H]1OS(=O)(=O)O [B33] | – | 307 ± 38 | –
NOCCOCCO[C@@H]1O[C@@H](COS(=O)(=O)O)[C@@H](O[C@@H]2O[C@@H](COS(=O)(=O)O)[C@@H](O[C@@H]3O[C@@H](COS(=O)(=O)O)[C@@H](O[C@@H]4O[C@@H](COS(=O)(=O)O)[C@@H](OS(=O)(=O)O)[C@H](O)[C@H]4OS(=O)(=O)O)[C@H](O)[C@H]3OS(=O)(=O)O)[C@H](O)[C@H]2OS(=O)(=O)O)[C@H](O)[C@H]1OS(=O)(=O)O [B34] | – | 201 ± 64 | Kd (WT RBD of SARS-CoV-2 SgP [3]): 61 ± 8 nM
